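Following 48 hours of exposure in 96-well plates, responses at five concentrations were used to interpolate endpoints linearly. TGI denotes the concentration required for complete inhibition of growth.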

The first experiment relates to KM12 colon. The experiment can be described thus: NCI-60 cell line screen, 48 h.
Compound `COc1cc2[nH]c(-c3ccccc3)cc(=O)c2c(OC)c1OC` showed a TGI of over 100 µM.

Regarding `CCOP(=O)(OCC)OC1CC(n2cc(C)c(=O)n(C)c2=O)OC1CO[Si](C)(C)C(C)(C)C` (stereo not drawn), the TGI is over 100 µM.

The compound `COc1ccc(N2C(=O)C3c4[nH]c5ccccc5c4C4CCCCCCCCCC4C3C2=O)cc1` (stereo not drawn) had a TGI of over 10 µM.

Turning to `COc1cccc2c1OCC1Cc3ccccc3OC21` (stereo not drawn), the TGI was over 100 µM.

`CC(C)C(N)C(=O)NC(CCC(=O)NCCCCC(N)C(=O)NCCCNc1ccc([N+](=O)[O-])c2[nH]c3ccccc3c(=O)c12)C(N)=O` (stereo not drawn): the TGI is over 100 µM.

`CC#CC(O)(C(=O)OC1CC(C)N(C)C(C)(C)C1)C1CCCC1` (stereo not drawn) returned a TGI of over 100 µM.

On to `CC1(C)OC2COC3([C@@H]4OC(C)(C)O[C@@H]4CO)OC(C)(C)OC3C2O1` (stereo partly drawn), for which the TGI was over 100 µM.

Turning to `COc1cc(/C=C2\CCC(C)/C(=C\c3cc(OC)c(OC)c(OC)c3)C2=O)cc(OC)c1OC` (stereo not drawn), the TGI stood at 8.46 µM.

In the case of `COC(=O)[C@H](Cc1ccccc1)NC(=O)N(CCC#N)CCN(C(=O)N[C@@H](Cc1ccccc1)C(=O)OC)c1ccccc1`, the TGI was over 100 µM.

The compound `Nc1nc(Nc2ccccc2)sc1C(=O)c1ccco1` registered a TGI of 23.5 µM.

For the compound `Cc1cc(NS(=O)(=O)c2ccc(NC(NC(=O)C(C(F)(F)F)C(F)(F)F)(C(F)(F)F)C(F)(F)F)cc2)no1`, the TGI is over 100 µM.

Compound `C/C(=N\Nc1nc2ccccc2s1)c1ccc2ccccc2n1` came in with a TGI of over 100 µM.

On to `O=[N+]([O-])/C(Cl)=C(\NCCN/C(C(Cl)=C(Cl)Cl)=C(/Cl)[N+](=O)[O-])C(Cl)=C(Cl)Cl`, for which the TGI is over 100 µM.

The compound `CC1(C)CC(C#Cc2ccccc2)CC(C)(C)N1O` came in with a TGI of 36.1 µM.

`CCNc1ncnc2sc(SCc3ccccc3)nc12` returned a TGI of over 100 µM.

Take `CC1(C)N=C2C(=O)c3c([nH]c4ccccc34)[C@]3(C)CCC1CC23` (stereo partly drawn): the TGI was over 6.25 µM.

In turn, `CCN1C(=O)C(=C/C=C/c2ccc(N(CC)CC)cc2)C(=O)N(CC)C1=S` returned a TGI of over 100 µM.

In turn, `COc1ccc(NC(C)c2ccncc2)cc1` (stereo not drawn) yielded a TGI of over 100 µM.

In the case of `C/C(=C\CO)CC/C=C(\C)CNc1ccc([N+](=O)[O-])cc1`, the TGI stood at 64.2 µM.

`CC(C)=CCC[C@@H](C)C1=C(O)C(N)=C(C)C(=O)C1=O` showed a TGI of over 100 µM.

On to `c1ccc(C2CC(=NC3CCCCC3)Nc3ccccc3N2)cc1` (stereo not drawn), for which the TGI was over 100 µM.

For the next experiment, the system named is MOLT-4 leukemia. The experiment can be described thus: NCI-60 cell line screen, 48 h.
`COc1cc2[nH]c(-c3ccccc3)cc(=O)c2c(OC)c1OC`: the TGI was over 100 µM.

Compound `CCOP(=O)(OCC)OC1CC(n2cc(C)c(=O)n(C)c2=O)OC1CO[Si](C)(C)C(C)(C)C` (stereo not drawn) returned a TGI of over 100 µM.

On to `COc1ccc(N2C(=O)C3c4[nH]c5ccccc5c4C4CCCCCCCCCC4C3C2=O)cc1` (stereo not drawn), for which the TGI is over 10 µM.

On to `COc1cccc2c1OCC1Cc3ccccc3OC21` (stereo not drawn), for which the TGI is over 100 µM.

In turn, `CC#CC(O)(C(=O)OC1CC(C)N(C)C(C)(C)C1)C1CCCC1` (stereo not drawn) gave a TGI of over 100 µM.

The compound `COC(=O)[C@H](Cc1ccccc1)NC(=O)N(CCC#N)CCN(C(=O)N[C@@H](Cc1ccccc1)C(=O)OC)c1ccccc1` registered a TGI of 41.3 µM.

Turning to `Nc1nc(Nc2ccccc2)sc1C(=O)c1ccco1`, the TGI amounted to 35.7 µM.

`Cc1cc(NS(=O)(=O)c2ccc(NC(NC(=O)C(C(F)(F)F)C(F)(F)F)(C(F)(F)F)C(F)(F)F)cc2)no1` displayed a TGI of over 100 µM.

On to `O=[N+]([O-])/C(Cl)=C(\NCCN/C(C(Cl)=C(Cl)Cl)=C(/Cl)[N+](=O)[O-])C(Cl)=C(Cl)Cl`, for which the TGI stood at 80.7 µM.

Consider `CC1(C)CC(C#Cc2ccccc2)CC(C)(C)N1O`, for which the TGI is over 100 µM.

In turn, `CCNc1ncnc2sc(SCc3ccccc3)nc12` had a TGI of over 100 µM.

In turn, `CC1(C)N=C2C(=O)c3c([nH]c4ccccc34)[C@]3(C)CCC1CC23` (stereo partly drawn) had a TGI of over 6.25 µM.

Regarding `CCN1C(=O)C(=C/C=C/c2ccc(N(CC)CC)cc2)C(=O)N(CC)C1=S`, the TGI is over 100 µM.

On to `COc1ccc(NC(C)c2ccncc2)cc1` (stereo not drawn), for which the TGI is over 100 µM.

As to `C/C(=C\CO)CC/C=C(\C)CNc1ccc([N+](=O)[O-])cc1`, the TGI was 18.4 µM.

The compound `CC(C)=CCC[C@@H](C)C1=C(O)C(N)=C(C)C(=O)C1=O` gave a TGI of over 56.6 µM.

Turning to `c1ccc(C2CC(=NC3CCCCC3)Nc3ccccc3N2)cc1` (stereo not drawn), the TGI is over 100 µM.

The test system of another experiment is SK-MEL-28 melanoma. The experiment can be described thus: NCI-60 cell line screen, 48 h.
Take `COc1cc2[nH]c(-c3ccccc3)cc(=O)c2c(OC)c1OC`: the TGI was over 100 µM.

In turn, `CCOP(=O)(OCC)OC1CC(n2cc(C)c(=O)n(C)c2=O)OC1CO[Si](C)(C)C(C)(C)C` (stereo not drawn) showed a TGI of over 100 µM.

As to `COc1ccc(N2C(=O)C3c4[nH]c5ccccc5c4C4CCCCCCCCCC4C3C2=O)cc1` (stereo not drawn), the TGI was over 10 µM.

On to `CC(C)C(N)C(=O)NC(CCC(=O)NCCCCC(N)C(=O)NCCCNc1ccc([N+](=O)[O-])c2[nH]c3ccccc3c(=O)c12)C(N)=O` (stereo not drawn), for which the TGI is over 100 µM.

Take `CC#CC(O)(C(=O)OC1CC(C)N(C)C(C)(C)C1)C1CCCC1` (stereo not drawn): the TGI was over 100 µM.

With `CC1(C)OC2COC3([C@@H]4OC(C)(C)O[C@@H]4CO)OC(C)(C)OC3C2O1` (stereo partly drawn), the TGI was over 100 µM.

Regarding `COc1cc(/C=C2\CCC(C)/C(=C\c3cc(OC)c(OC)c(OC)c3)C2=O)cc(OC)c1OC` (stereo not drawn), the TGI worked out at 25.2 µM.

Regarding `COC(=O)[C@H](Cc1ccccc1)NC(=O)N(CCC#N)CCN(C(=O)N[C@@H](Cc1ccccc1)C(=O)OC)c1ccccc1`, the TGI worked out at 33.9 µM.

For the compound `Nc1nc(Nc2ccccc2)sc1C(=O)c1ccco1`, the TGI stood at 67.1 µM.

As to `Cc1cc(NS(=O)(=O)c2ccc(NC(NC(=O)C(C(F)(F)F)C(F)(F)F)(C(F)(F)F)C(F)(F)F)cc2)no1`, the TGI was over 100 µM.
